US11111247B2, “Pyrazolopyrimidine compounds and uses thereof” (Incyte Corporation, priority 2018, dated 2021)
Where two headings read alike, the source gives them in different places.

How the values were obtained:
FGFR2 (P) = FGFR2 (P) (Homo sapiens (Human), UniProt P21802); assay: FGFR Enzymatic Assay, FGFR2 phosphorylated; conditions: phosphorylated enzyme, ATP near or below Km
Protocol: (§1) The inhibitor potency of the exemplified compounds was determined in an enzyme discontinuous assay that measures peptide phosphorylation using FRET measurements to detect product formation. Inhibitors were serially diluted in DMSO and a volume of 0.2 μL was transferred to the wells of a 384-well plate. For the isoforms of FGFR (−1, −2, −3 wild-type and mutant isoforms, −4) including phosphorylated (P) and un-phosphorylated (UP) proteins, a 5 μL/well volume of enzyme diluted in assay buffer (50 mM HEPES, 10 mM MgCl2, 1 mM EGTA, 0.01% Tween-20, 5 mM DTT, pH 7.5) was added to the plate and pre-incubated with inhibitor for 5 to 15 minutes at ambient temperature. Appropriate controls (enzyme blank and enzyme with no inhibitor) were included on the plate. The reaction was initiated by the addition of a 5 μL/well volume containing both biotinylated [sequence] […] The plate was allowed to equilibrate for −10 minutes at ambient temperature before scanning on a PheraStar plate reader (BMG Labtech) instrument.
(§2) Either GraphPad prism or XLfit was used to analyze the data. The IC50 values were derived by fitting the data to a four parameter logistic equation producing a sigmoidal dose-response curve with a variable Hill coefficient. Prism equation: Y=Bottom+(Top−Bottom)/(1+10^((LogIC50−X)*Hill slope)); XLfit equation: Y=(A+((B−A)/(1+((X/C)^D)))) where X is the logarithm of inhibitor concentration and Y is the response.

RT112 cells = assay: Luminescent Viability Assay (LVA, FGFR3); type: cell-based; conditions: Homo sapiens, RT-112, 72 h, 3 days, CellTiter-Glo
Protocol: RT112 cells were purchased from ATCC (Manassas, Va.) and maintained in RPMI, 10% FBS (Gibco/Life Technologies). To measure the effect of test compounds on the viability of cells, the cells were plated with RPMI 10% FBS (5×10^3 cells/well/in 50 μL) into black 96-well Greiner polystyrene in the presence or absence of 50 μl of a concentration range of test compounds. After 3 days, 100 μl of CellTiter-Glo Reagent (Promega) was added. Luminescence was read with a TopCount (PerkinElmer). IC50 determination was performed by fitting the curve of percent inhibition versus the log of the inhibitor concentration using the GraphPad Prism 5.0 software.

FGFR3 = FGFR3 (Homo sapiens, UniProt P22607); assay: pFGFR3 Functional Cell HTRF Assay (BAF3-TEL-FGFR3 cells); type: cell-based; conditions: 2 hours
Sequence of FGFR3 (P22607 23-806 limits assumed): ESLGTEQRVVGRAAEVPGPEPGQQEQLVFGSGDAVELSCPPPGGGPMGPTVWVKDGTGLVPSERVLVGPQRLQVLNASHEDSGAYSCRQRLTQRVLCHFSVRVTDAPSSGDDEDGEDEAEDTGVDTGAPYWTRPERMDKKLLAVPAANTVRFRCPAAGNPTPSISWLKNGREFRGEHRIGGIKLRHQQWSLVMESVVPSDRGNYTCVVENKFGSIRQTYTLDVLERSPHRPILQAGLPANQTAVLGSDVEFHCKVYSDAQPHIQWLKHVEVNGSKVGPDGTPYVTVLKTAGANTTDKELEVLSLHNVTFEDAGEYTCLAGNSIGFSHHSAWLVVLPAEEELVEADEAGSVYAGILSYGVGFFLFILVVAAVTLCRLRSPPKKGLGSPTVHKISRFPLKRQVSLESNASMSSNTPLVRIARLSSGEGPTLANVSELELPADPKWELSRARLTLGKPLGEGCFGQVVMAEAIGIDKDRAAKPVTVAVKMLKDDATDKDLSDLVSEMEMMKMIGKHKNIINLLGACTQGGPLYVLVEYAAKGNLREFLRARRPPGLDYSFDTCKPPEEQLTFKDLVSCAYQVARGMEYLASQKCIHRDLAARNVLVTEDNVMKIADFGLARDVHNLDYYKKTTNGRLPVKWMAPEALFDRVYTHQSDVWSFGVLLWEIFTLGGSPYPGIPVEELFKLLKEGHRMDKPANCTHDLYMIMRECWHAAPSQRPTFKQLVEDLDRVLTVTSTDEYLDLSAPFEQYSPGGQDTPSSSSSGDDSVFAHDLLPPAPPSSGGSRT
Protocol: To measure phosphorylated Fibroblast Growth Factor Receptor 1 and 3 (FGF1 and FGFR3), in house stable cell lines BAF3-TEL-FGFR1 or BAF3-TEL-FGFR3 were maintained in RPMI with 10% FBS and 1 μg/ml puromycin (Gibco/Life Technologies). […] The plates were gently shaken (100 rpm) for 2 minutes at room temperature to mix well and incubated for 2 hours in a single layer at 37° C., 5% CO2. 4 μl/well of 1/25 dilution of lysis buffer #3 (Cis Bio) was added with standard Protease inhibitors and shaken at 200 rpm at room temperature for 20 minutes. 4 μl total of the Cis Bio Tb-pFGFR Ab (10 ng) and d2-FGFR3 (1 ng) together were added to the lysate and mixed well. Plates were sealed and incubated at room temperature overnight in the dark. […] IC50 determination was performed by fitting the curve of inhibitor percent inhibition versus the log of the inhibitor concentration using the GraphPad Prism 5.0 software.

FGFR3 (UP) = FGFR3 (UP) (Homo sapiens (Human), UniProt P22607); assay: FGFR Enzymatic Assay, FGFR3 un-phosphorylated
Sequence of FGFR3 (UP) (P22607 23-806): as the sequence (P22607 23-806 limits assumed) above

FGFR1 (UP) = FGFR1 (UP) (Homo sapiens (Human), UniProt P11362); assay: FGFR Enzymatic Assay, FGFR1 un-phosphorylated
Sequence of FGFR1 (UP) (P11362 22-822): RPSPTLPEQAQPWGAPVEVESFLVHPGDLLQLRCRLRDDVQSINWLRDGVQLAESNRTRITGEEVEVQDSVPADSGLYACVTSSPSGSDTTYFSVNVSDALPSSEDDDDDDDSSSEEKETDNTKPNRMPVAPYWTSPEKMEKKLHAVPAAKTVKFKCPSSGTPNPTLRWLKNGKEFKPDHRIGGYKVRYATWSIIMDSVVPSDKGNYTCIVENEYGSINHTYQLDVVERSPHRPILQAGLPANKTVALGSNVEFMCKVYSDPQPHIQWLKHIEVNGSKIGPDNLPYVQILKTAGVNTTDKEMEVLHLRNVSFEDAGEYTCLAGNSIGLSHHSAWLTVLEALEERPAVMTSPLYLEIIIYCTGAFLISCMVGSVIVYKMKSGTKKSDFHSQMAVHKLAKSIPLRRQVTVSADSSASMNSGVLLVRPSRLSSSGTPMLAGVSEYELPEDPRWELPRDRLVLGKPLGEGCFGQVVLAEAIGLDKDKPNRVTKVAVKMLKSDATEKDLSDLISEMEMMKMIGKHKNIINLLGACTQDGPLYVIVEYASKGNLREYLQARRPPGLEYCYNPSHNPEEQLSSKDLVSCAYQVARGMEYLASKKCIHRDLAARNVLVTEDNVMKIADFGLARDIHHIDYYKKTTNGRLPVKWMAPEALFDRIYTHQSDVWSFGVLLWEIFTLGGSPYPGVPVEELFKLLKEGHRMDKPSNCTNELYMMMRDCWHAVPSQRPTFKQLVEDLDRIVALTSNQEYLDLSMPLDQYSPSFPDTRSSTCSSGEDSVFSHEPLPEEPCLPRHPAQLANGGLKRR
Protocol: as §1, §2

ALK2 (aa 147-end) = ALK2 (aa 147-end) (Homo sapiens (Human), UniProt Q04771); assay: ALK2 HTRF Assay; type: biochemical
Sequence of ALK2 (aa 147-end) (Q04771 147-509): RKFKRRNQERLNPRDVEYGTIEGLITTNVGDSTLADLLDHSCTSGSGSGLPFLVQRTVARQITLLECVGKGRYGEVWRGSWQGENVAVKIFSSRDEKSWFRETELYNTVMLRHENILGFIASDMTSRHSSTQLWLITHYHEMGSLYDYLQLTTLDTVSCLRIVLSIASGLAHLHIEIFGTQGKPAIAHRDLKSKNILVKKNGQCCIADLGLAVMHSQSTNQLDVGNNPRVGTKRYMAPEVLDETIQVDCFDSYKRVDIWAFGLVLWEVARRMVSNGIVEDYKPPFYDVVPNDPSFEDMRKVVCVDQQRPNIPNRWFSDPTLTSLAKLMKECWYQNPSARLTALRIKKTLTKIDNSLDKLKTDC

FGFR2 (UP) = FGFR2 (UP) (Homo sapiens (Human), UniProt P21802); assay: FGFR Enzymatic Assay, FGFR2 un-phosphorylated
Sequence of FGFR2 (UP) (P21802 22-821): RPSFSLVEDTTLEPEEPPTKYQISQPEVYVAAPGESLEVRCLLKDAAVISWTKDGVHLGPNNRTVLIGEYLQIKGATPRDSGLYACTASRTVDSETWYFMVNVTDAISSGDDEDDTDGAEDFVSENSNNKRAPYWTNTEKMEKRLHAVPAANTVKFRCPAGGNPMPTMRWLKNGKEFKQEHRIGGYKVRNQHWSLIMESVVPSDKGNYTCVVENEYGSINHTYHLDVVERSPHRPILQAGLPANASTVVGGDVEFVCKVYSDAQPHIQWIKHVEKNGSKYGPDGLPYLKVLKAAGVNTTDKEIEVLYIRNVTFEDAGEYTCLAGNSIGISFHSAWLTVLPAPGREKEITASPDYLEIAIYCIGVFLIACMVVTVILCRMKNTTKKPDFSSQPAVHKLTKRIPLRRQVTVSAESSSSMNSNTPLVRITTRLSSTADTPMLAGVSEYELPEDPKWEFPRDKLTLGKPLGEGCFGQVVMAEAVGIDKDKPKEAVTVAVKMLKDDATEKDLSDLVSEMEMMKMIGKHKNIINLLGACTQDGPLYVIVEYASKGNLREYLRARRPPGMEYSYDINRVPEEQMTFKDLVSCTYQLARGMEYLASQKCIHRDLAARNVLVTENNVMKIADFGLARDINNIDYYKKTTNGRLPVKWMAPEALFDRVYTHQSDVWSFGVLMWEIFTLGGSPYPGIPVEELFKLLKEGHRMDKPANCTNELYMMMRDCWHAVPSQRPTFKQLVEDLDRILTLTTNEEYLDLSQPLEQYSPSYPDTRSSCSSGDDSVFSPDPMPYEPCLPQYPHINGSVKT
Protocol: as §1, §2

ALK2 = ALK2 (Homo sapiens (Human), UniProt Q04771); assay: ALK2 Cellular Assay (phospho SMAD1 HTRF, BMP-7 stimulated HeLa cells); type: cell-based; conditions: read-out: ALK2 Cellular Assay PSMAD
Sequence of ALK2 (Q04771 21-509): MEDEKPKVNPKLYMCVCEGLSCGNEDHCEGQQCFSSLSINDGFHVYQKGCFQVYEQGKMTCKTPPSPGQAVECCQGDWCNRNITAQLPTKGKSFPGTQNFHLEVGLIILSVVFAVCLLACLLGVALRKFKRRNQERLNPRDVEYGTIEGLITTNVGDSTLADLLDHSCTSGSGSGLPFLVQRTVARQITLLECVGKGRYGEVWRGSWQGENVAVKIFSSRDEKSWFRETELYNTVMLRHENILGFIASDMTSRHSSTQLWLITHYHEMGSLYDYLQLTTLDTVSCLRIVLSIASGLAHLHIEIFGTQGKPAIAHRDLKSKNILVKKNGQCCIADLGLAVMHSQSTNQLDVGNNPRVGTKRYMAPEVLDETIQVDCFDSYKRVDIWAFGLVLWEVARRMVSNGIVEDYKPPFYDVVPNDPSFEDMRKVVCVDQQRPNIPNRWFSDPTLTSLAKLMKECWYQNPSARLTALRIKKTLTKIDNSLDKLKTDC
Summary of the method: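 HeLa cells pre-treated with compound (highest final 3 μM) for 60 min at 37° C, then stimulated with 200 ng/ml BMP-7 for 30 min. Phospho-SMAD1 (S463/S465) quantified by HTRF after overnight room-temperature incubation.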

[1] = read-out: FGFR3 (UP) IC50, un-phosphorylated enzyme, ATP near or below Km
[2] = HeLa cells, 200 ng/ml BMP-7, Phospho SMAD1 (S463/S465) HTRF
[3] = read-out: ALK2 3 μM IC50, 3 uM ATP
[4] = read-out: ALK2 100 μM IC50, 100 uM ATP
[5] = read-out: ALK2 1 mM IC50, 1 mM ATP
[6] = read-out: FGFR2 (UP) IC50, un-phosphorylated enzyme, ATP near or below Km
[7] = read-out: FGFR1 (UP) IC50, un-phosphorylated enzyme, ATP near or below Km

Sequence of FGFR2 (P) (P21802 22-821): as the sequence (P21802 22-821) above

IC50 (FGFR3 (UP)) [nM]	IC50 (FGFR2 (UP)) [nM]	IC50 (ALK2; [2]) [nM]	IC50 (ALK2 (aa 147-end); [3]) [nM]	IC50 (ALK2 (aa 147-end); [4]) [nM]	IC50 (ALK2 (aa 147-end); [5]) [nM]	IC50 (ALK2 (aa 147-end); ALK2 1 mM IC50, 1 mM ATP) [nM]	SMILES	IC50 (FGFR2 (P); read-out: FGFR2 (P) IC50) [nM]	IC50 (RT112 cells) [nM]	IC50 (FGFR3) [nM]	IC50 (FGFR3 (UP); [1]) [nM]	IC50 (FGFR1 (UP)) [nM]	IC50 (ALK2 (aa 147-end); ALK2 3 μM IC50, 3 uM ATP) [nM]	IC50 (ALK2 (aa 147-end); ALK2 100 μM IC50, 100 uM ATP) [nM]	IC50 (FGFR2 (UP); [6]) [nM]	IC50 (FGFR1 (UP); [7]) [nM]	IC50 (ALK2) [nM]	IC50 (FGFR2 (P); FGFR2 (P) IC50 (nM)) [nM]
–	–	–	–	–	–	–	CCn1cc(-c2n[nH]c3cnc(N4C5CCC4C(=O)N(C)C5)nc23)cn1 (stereo not drawn) [Example 61, 8-(3-(1-Ethyl-1H-pyrazol-4-yl)-1H-pyrazolo[4,3-d]pyrimidin-5-yl)-3-methyl-3,8-diazabicyclo[3.2.1]octan-2-one]	< 100	100 to 500	< 100	< 100	100 to 500	500 to 2000	500 to 2000	–	–	–	–
100 to 500	100 to 500	< 100	< 100	< 100	< 100	–	C[C@@H]1CN(c2ccc(-c3n[nH]c4cnc(N5[C@H](C)CN(C(=O)OCCF)C[C@@H]5C)nc34)cn2)CCN1 [Example 12, 2-Fluoroethyl (3R,5S)-3,5-dimethyl-4-(3-(6-((R)-3-methylpiperazin-1-yl)pyridin-3-yl)-1H-pyrazolo[4,3-d]pyrimidin-5-yl)piperazine-1-carboxylate]	–	–	–	–	500 to 2000	–	–	–	–	–	–
–	–	–	–	–	–	–	CNC(=O)c1ccc(-n2cc(-c3n[nH]c4cnc(N5C6CCC5C(=O)N(C)C6)nc34)cn2)cc1 (stereo not drawn) [Example 80, N-Methyl-4-(4-(5-(3-methyl-2-oxo-3,8-diazabicyclo[3.2.1]octan-8-yl)-1H-pyrazolo[4,3-d]pyrimidin-3-yl)-1H-pyrazol-1-yl)benzamide]	< 100	500 to 2000	–	< 100	–	–	–	< 100	< 100	–	–
100 to 500	100 to 500	500 to 2000	< 100	–	–	100 to 500	C[C@@H]1CCC[C@H](C)N1c1ncc2[nH]nc(-c3ccc(N4CCN(C)CC4)cc3)c2n1 [Example 16, 5-((2R,6S)-2,6-Dimethylpiperidin-1-yl)-3-(4-(4-methylpiperazin-1-yl)phenyl)-1H-pyrazolo[4,3-d]pyrimidine]	–	–	–	–	100 to 500	–	–	–	–	–	–
100 to 500	500 to 2000	100 to 500	< 100	< 100	–	100 to 500	COC(=O)N1C[C@@H](C)N(c2ncc3[nH]nc(-c4ccc(N5CCO[C@H](C)C5)nc4)c3n2)[C@@H](C)C1 [Example 32, Methyl (3R,5S)-3,5-dimethyl-4-(3-(6-((R)-2-methylmorpholino)pyridin-3-yl)-1H-pyrazolo[4,3-d]pyrimidin-5-yl)piperazine-1-carboxylate]	–	–	–	–	–	–	–	–	> 2000	–	–
–	–	500 to 2000	< 100	< 100	–	100 to 500	C[C@@H]1CN(c2ccc(-c3n[nH]c4cnc(N5C[C@@H]6C[C@H]5CN6C(=O)N5CCCC5)nc34)cn2)CCN1 [Example 21, ((1S,4S)-5-(3-(6-((R)-3-Methylpiperazin-1-yl)pyridin-3-yl)-1H-pyrazolo[4,3-d]pyrimidin-5-yl)-2,5-diazabicyclo[2.2.1]heptan-2-yl)(pyrrolidin-1-yl)methanone]	–	–	–	> 2000	–	–	–	> 2000	> 2000	–	–
–	–	–	–	–	–	–	CN(C)C(=O)c1ccc(-n2cc(-c3n[nH]c4cnc(N5C6CCC5C(=O)N(C)C6)nc34)cn2)cc1 (stereo not drawn) [Example 79, N,N-Dimethyl-4-(4-(5-(3-methyl-2-oxo-3,8-diazabicyclo[3.2.1]octan-8-yl)-1H-pyrazolo[4,3-d]pyrimidin-3-yl)-1H-pyrazol-1-yl)benzamide]	< 100	–	< 100	< 100	–	100 to 500	500 to 2000	< 100	< 100	–	–
–	500 to 2000	100 to 500	< 100	< 100	–	100 to 500	C[C@@H]1CN(c2ccc(-c3n[nH]c4cnc(N5CC6CCC5CN6C(=O)N5CCCC5)nc34)cn2)CCN1 (stereo partly drawn) [Example 20, (5-(3-(6-((R)-3-Methylpiperazin-1-yl)pyridin-3-yl)-1H-pyrazolo[4,3-d]pyrimidin-5-yl)-2,5-diazabicyclo[2.2.2]octan-2-yl)(pyrrolidin-1-yl)methanone]	–	–	–	> 2000	500 to 2000	–	–	–	–	–	–
–	–	–	–	–	–	–	CN1CC2CCC(C1=O)N2c1ncc2[nH]nc(-c3cnn(CC(F)(F)F)c3)c2n1 (stereo not drawn) [Example 67, 3-Methyl-8-(3-(1-(2,2,2-trifluoroethyl)-1H-pyrazol-4-yl)-1H-pyrazolo[4,3-d]pyrimidin-5-yl)-3,8-diazabicyclo[3.2.1]octan-2-one]	–	–	100 to 500	< 100	100 to 500	–	–	–	–	–	100 to 500
500 to 2000	500 to 2000	< 100	< 100	< 100	< 100	–	C[C@@H]1CN(c2ccc(-c3n[nH]c4cnc(N5[C@H](C)CN(C(=O)N6CCC(F)C6)C[C@@H]5C)nc34)cn2)CCN1 (stereo partly drawn) [Example 10, ((3R,5S)-3,5-Dimethyl-4-(3-(6-((R)-3-methylpiperazin-1-yl)pyridin-3-yl)-1H-pyrazolo[4,3-d]pyrimidin-5-yl)piperazin-1-yl)(3-fluoropyrrolidin-1-yl)methanone]	–	–	–	–	500 to 2000	–	–	–	–	–	–
–	–	–	–	–	–	–	CC(C)n1cc(-c2n[nH]c3cnc(N4C5CCC4C(=O)N(C)C5)nc23)cn1 (stereo not drawn) [Example 62, 8-(3-(1-Isopropyl-1H-pyrazol-4-yl)-1H-pyrazolo[4,3-d]pyrimidin-5-yl)-3-methyl-3,8-diazabicyclo[3.2.1]octan-2-one]	< 100	100 to 500	100 to 500	< 100	100 to 500	–	–	–	–	–	–
–	–	–	–	–	–	–	CNC(=O)c1ccc(-n2cc(-c3n[nH]c4cnc(N5C6CCC5C(=O)N(C)C6)nc34)cn2)cn1 (stereo not drawn) [Example 82, N-Methyl-5-(4-(5-(3-methyl-2-oxo-3,8-diazabicyclo[3.2.1]octan-8-yl)-1H-pyrazolo[4,3-d]pyrimidin-3-yl)-1H-pyrazol-1-yl)picolinamide]	< 100	–	100 to 500	< 100	–	500 to 2000	500 to 2000	–	< 100	–	–

SMILES	IC50 (FGFR3 (UP)) [nM]	IC50 (FGFR2 (UP)) [nM]	IC50 (ALK2; [2]) [nM]	IC50 (ALK2 (aa 147-end); [3]) [nM]	IC50 (ALK2 (aa 147-end); [4]) [nM]	IC50 (ALK2 (aa 147-end); [5]) [nM]	IC50 (ALK2 (aa 147-end); ALK2 1 mM IC50, 1 mM ATP) [nM]	IC50 (FGFR2 (P); read-out: FGFR2 (P) IC50) [nM]	IC50 (RT112 cells) [nM]	IC50 (FGFR3) [nM]	IC50 (FGFR3 (UP); [1]) [nM]	IC50 (FGFR1 (UP)) [nM]	IC50 (ALK2 (aa 147-end); ALK2 3 μM IC50, 3 uM ATP) [nM]	IC50 (ALK2 (aa 147-end); ALK2 100 μM IC50, 100 uM ATP) [nM]	IC50 (FGFR2 (UP); [6]) [nM]	IC50 (FGFR1 (UP); [7]) [nM]	IC50 (ALK2) [nM]	IC50 (FGFR2 (P); FGFR2 (P) IC50 (nM)) [nM]
C[C@@H]1CN(c2ccc(-c3n[nH]c4cnc(N5[C@@H]6CC[C@H]5CN(C(=O)N5CCCC5)C6)nc34)cn2)CCN1 [Example 14, ((1R,5S)-8-(3-(6-((R)-3-Methylpiperazin-1-yl)pyridin-3-yl)-1H-pyrazolo[4,3-d]pyrimidin-5-yl)-3,8-diazabicyclo[3.2.1]octan-3-yl)(pyrrolidin-1-yl)methanone]	–	–	–	< 100	< 100	–	100 to 500	–	–	–	> 2000	–	–	–	> 2000	> 2000	100 to 500	–
C[C@@H]1CN(c2ccc(-c3n[nH]c4cnc(N5C6CCC5CC6)nc34)cn2)CCN1 [Example 3, 5-(7-Azabicyclo[2.2.1]heptan-7-yl)-3-(6-((R)-3-methylpiperazin-1-yl)pyridin-3-yl)-1H-pyrazolo[4,3-d]pyrimidine]	100 to 500	100 to 500	100 to 500	< 100	< 100	–	100 to 500	–	–	–	–	500 to 2000	–	–	–	–	–	–
C[C@@H]1CN(c2ccc(-c3n[nH]c4cnc(N5[C@@H]6CC[C@H]5CN(C(=O)C5CC5)C6)nc34)cn2)CCN1 [Example 13, Cyclopropyl((1R,5S)-8-(3-(6-((R)-3-methylpiperazin-1-yl)pyridin-3-yl)-1H-pyrazolo[4,3-d]pyrimidin-5-yl)-3,8-diazabicyclo[3.2.1]octan-3-yl)methanone]	100 to 500	100 to 500	–	< 100	< 100	–	100 to 500	–	–	–	–	500 to 2000	–	–	–	–	100 to 500	–
